The term EC50 denotes the midpoint of the concentration-response curve.

Among the data in patent publication US9181181B2, “2-substituted-3-phenylpropionic acid derivatives and their use in the treatment of inflammatory bowel disease” (Albireo AB, priority 2007, dated 2015) are EC50 values, retold here.

The target of test [1] is human PPARalpha (Homo sapiens (Human), UniProt Q07869). Put plainly: Transactivation (reporter gene) assay, GAL4-PPARalpha LBD in U-2 OS cells. It counts as cell-based. The note with it: 40 h incubation, 16 μM ETYA as 100% control, read-out: EC50 PPARα. As for the experimental part: (§1) Transactivation Assay Expression vectors were prepared by inserting the ligand binding domain cDNA (complementary DNA) of human PPARalpha (amino acid 168-468) and human PPARgamma (amino acid 205-505), 3′ to and in frame with, the yeast GAL4 transcription factor DNA binding domain and the nuclear localization signal from the T-antigen of Polyoma Virus into the mammalian expression vector pSGS (Stratagene). The resulting expression vectors pSGGAL-PPARalpha and pSGGAL-PPARgamma were used in co-transfection experiments together with a modified pGL3 promoter plasmid (Promega) containing five copies of the UAS GAL4 recognition site. 2.5 μg pSGGAL-PPARalpha or pSGGAL-PPARgamma were mixed with 25 μg pGL3p […] and 22.5 μg pBluescript (Stratagene) in 0.95 mL ice cold PBS containing between 9-12 million U-2 OS (human osteosarcoma) cells. The cell/DNA mixture was incubated on ice for 5 minutes and then divided between two 0.4 cm cuvettes and electroporated at 960 μF, 230 V using a BioRad electroporator. The two electroporation mixes were combined in assay medium [Dulbecco's Modified Eagle Medium w/o phenol red, (Gibco 11880-028) including 10% FBS (Foetal Bovine Serum), 1% PEST (Penicillin & Streptomycin), 20 mM Hepes, 2 mM L-Glutamine and 0.36% Glucose (Gibco 31966-021)] at 0.32 million cells/ml. 25 μl diluted, electroporated cells, were seeded into 384-well plates and allowed to adhere for 3-4 h at 37° C., 5% CO2 in a cell culture incubator. Test compounds in DMSO were diluted 40 fold in assay medium. 7 μl of diluted compound was added to the adhered electroporated cells and incubation was continued for 40 h in a cell culture incubator. Cells were lysed by adding 32 μl/well LucLite (Packard) and incubated at room temperature for 15 minutes. Luciferase activity was measured using a luminometry protocol on a Wallac Victor2 plate reader. 16 μM ETYA was used as the 100% control for humanPPARalpha activity and 16 μM Pioglitazone was used as the 100% control for humanPPARgamma activity. In Vivo Assay Determination of Plasma Clearance and Oral Bioavailability in Hamster or Mouse
A general note: Reporter assays use an easily measured gene product as a stand-in for the process of interest.

Test [2] deals with human PPARgamma (Homo sapiens (Human), UniProt P37231). Put plainly: Transactivation (reporter gene) assay, GAL4-PPARgamma LBD in U-2 OS cells. Conditions: 40 h incubation, 16 μM Pioglitazone as 100% control, read-out: EC50 PPARγ. It counts as cell-based. As for the experimental part: as §1
Chain of human PPARgamma (P37231 205-505): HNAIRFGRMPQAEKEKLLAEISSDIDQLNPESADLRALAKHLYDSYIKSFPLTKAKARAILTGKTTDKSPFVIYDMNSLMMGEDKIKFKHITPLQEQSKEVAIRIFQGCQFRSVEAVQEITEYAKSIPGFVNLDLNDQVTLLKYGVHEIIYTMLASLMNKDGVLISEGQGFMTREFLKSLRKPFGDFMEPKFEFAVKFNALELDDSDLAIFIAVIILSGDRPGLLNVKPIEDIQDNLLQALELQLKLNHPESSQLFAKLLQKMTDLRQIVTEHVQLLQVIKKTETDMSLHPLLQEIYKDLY

Chain of human PPARalpha (Q07869 168-468): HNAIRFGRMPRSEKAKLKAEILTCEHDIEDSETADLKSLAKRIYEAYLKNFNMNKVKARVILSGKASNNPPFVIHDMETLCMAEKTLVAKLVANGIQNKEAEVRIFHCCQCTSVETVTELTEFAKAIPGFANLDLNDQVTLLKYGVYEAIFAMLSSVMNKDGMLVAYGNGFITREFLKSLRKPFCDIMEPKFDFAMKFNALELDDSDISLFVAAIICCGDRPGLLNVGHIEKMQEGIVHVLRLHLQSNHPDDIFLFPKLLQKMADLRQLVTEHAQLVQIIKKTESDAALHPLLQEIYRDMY

For `COC(=O)C(Cc1ccccc1)OC(=O)Cc1cccc(SCc2ccccc2C(=O)O)c1` (stereo not drawn) [Example 35, 2-[3-(1-Methoxycarbonyl-2-phenyl-ethoxycarbonylmethyl)-phenylsulfanylmethyl]-benzoic acid], the results for the EC50 in test [1] and in test [2] were 22000 nM and 6000 nM, respectively.

Take `O=C(Cc1ccc(CC(SCCc2ccc(F)cc2)C(=O)O)cc1)OCc1ccc(C(F)(F)F)cc1` (stereo not drawn) [Example 3, 2-[2-(4-Fluoro-phenyl)-ethylsulfanyl]-3-[4-(4-trifluoromethyl-benzyloxycarbonylmethyl)-phenyl]-propionic acid]: the results for the half-maximal effective concentration (EC50) in test [1] and in test [2] were 56 nM and 1700 nM, respectively.

With `O=C(Cc1ccc(CC(C(=O)O)S(=O)(=O)CCc2ccc(F)cc2)cc1)OCc1ccc(C(F)(F)F)cc1` (stereo not drawn) [Example 17, 2-[2-(4-Fluoro-phenyl)-ethanesulfonyl]-3-[4-(4-trifluoromethyl-benzyloxycarbonylmethyl)-phenyl]-propionic acid], the results for the EC50 in test [1] and in test [2] were 4400 nM and 18000 nM, respectively.

`CCO[C@@H](Cc1ccc(OC(=O)Cc2ccc(NC(=O)OC(C)(C)C)cc2)cc1)C(=O)O` [Example 22, (S)-3-{4-[2-(4-tert-Butoxycarbonylamino-phenyl)-acetoxy]-phenyl}-2-ethoxy-propionic acid]: the EC50 in test [1] and in test [2] was 18000 nM throughout.

On to `C=CCC(OC(=O)Cc1ccc(SCc2ccccc2C(=O)O)cc1)c1ccccc1` (stereo not drawn) [Example 34, 2-[4-(1-Phenyl-but-3-enyloxycarbonylmethyl)-phenylsulfanylmethyl]-benzoic acid], for which the EC50 worked out at 18000 nM in test [1] and 15000 nM in test [2].

Regarding `O=C(Cc1cccc(SCc2ccccc2C(=O)O)c1)OCc1ccc(C(F)(F)F)cc1` [Example 28, 2-[3-(4-Trifluoromethyl-benzyloxycarbonylmethyl)-phenylsulfanylmethyl]-benzoic acid], the results for the EC50 in test [1] and in test [2] were 1300 nM and 2500 nM, respectively.

For the molecule `CC(OC(=O)Cc1cccc(SCc2ccccc2C(=O)O)c1)c1ccc(C(F)(F)F)cc1` (stereo not drawn) [Example 31, 2-{3-[1-(4-Trifluoromethyl-phenyl)-ethoxycarbonylmethyl]phenylsulfanylmethyl}-benzoic acid], the EC50 is 18000 nM in test [1] and 3500 nM in test [2].

With `Cc1oc(-c2ccccc2)nc1CCOC(=O)c1ccc(CC(SCCc2ccc(F)cc2)C(=O)O)cc1` (single isomer, unassigned) [Example 20, 4-{(−)-2-Carboxy-2-[2-(4-fluoro-phenyl)-ethylsulfanyl]-ethyl}-benzoic acid 2-(5-methyl-2-phenyl-oxazol-4-yl)-ethyl ester], the EC50 turned out to be 840 nM in test [1] and 72 nM in test [2].

Turning to `O=C(OCc1ccc(CC(SCCc2ccc(F)cc2)C(=O)O)cc1)c1nc(-c2ccccc2)oc1C(F)(F)F` (stereo not drawn) [Example 13, 2-Phenyl-5-trifluoromethyl-oxazole-4-carboxylic acid 4-{2-carboxy-2-[2-(4-fluoro-phenyl)-ethylsulfanyl]-ethyl}-benzyl ester], the EC50 in test [1] was determined as 12 nM; in test [2], 30 nM.

Turning to `COc1ccc(CCOC(=O)Cc2cccc(SCc3ccccc3C(=O)O)c2)cc1OC` [Example 44, 2-{3-[2-(3,4-Dimethoxy-phenyl)-ethoxycarbonylmethyl]-phenylsulfanylmethyl}-benzoic acid], the results for the EC50 in test [1] and in test [2] were 18000 nM and 11000 nM, respectively.

For the molecule `CN1CCN(CC(=O)OCc2ccc(CC(SCCc3ccc(F)cc3)C(=O)O)cc2)CC1` (stereo not drawn) [Example 11, 2-[2-(4-Fluoro-phenyl)-ethylsulfanyl]-3-{4-[2-(4-methyl-piperazin-1-yl)-acetoxymethyl]-phenyl}-propionic acid], the EC50 in test [1] stood at 150 nM; in test [2], 810 nM.

`COc1ccc(CC(=O)OCc2ccc(CC(SCCc3ccc(F)cc3)C(=O)O)cc2)cc1` (stereo not drawn) [Example 8]: the values for the EC50 in test [1] and in test [2] were 270 nM and 2500 nM, respectively.
